Laboratory results published in patent publication US20260083692A1 (Strongbridge Dublin Limited, priority 2018, published 2026).
Where two headings read alike, the source gives them in different places.

Key:
[1] = biological target: T1, human OAT1 (Homo sapiens, UniProt Q4U2R8); settings: for Uptake (Average ± SD), OAT1: OAT1-expressing HEK293 cells; for Uptake (Average ± SD), Control: control HEK293 cells (vector only); for % control: relative to solvent control
T1 sequence (Q4U2R8 1-563): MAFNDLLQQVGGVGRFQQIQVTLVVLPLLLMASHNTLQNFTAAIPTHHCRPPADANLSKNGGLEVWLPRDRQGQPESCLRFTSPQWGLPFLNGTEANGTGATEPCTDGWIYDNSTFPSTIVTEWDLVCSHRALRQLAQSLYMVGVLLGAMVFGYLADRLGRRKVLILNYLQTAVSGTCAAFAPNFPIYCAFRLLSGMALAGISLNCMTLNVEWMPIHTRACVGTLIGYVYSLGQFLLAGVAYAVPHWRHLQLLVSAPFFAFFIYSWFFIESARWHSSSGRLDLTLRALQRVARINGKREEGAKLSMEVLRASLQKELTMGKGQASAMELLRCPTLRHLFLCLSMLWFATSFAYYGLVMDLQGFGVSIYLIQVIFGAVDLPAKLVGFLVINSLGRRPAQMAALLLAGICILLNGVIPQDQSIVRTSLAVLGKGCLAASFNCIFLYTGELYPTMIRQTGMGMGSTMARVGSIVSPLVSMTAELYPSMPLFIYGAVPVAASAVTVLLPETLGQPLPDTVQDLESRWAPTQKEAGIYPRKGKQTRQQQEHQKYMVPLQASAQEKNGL

[2] = biological target: T1, human OAT1; assay: cell-based

## NS(=O)(=O)c1cc(Cl)c(Cl)c(S(N)(=O)=O)c1 [Dichlorphenamide, 4,5-dichloro-1,3-benzenedisulfonamide]
[1]; inhibitor 1 μM
  Uptake (Average ± SD), OAT1: 6.99 pmol/mg protein
  Uptake (Average ± SD), Control: 0.0857 pmol/mg protein
  Background corrected uptake rate: 6.90 pmol/mg/min
  % control: 112%
[1]; inhibitor 3 μM
  Uptake (Average ± SD), OAT1: 5.99 ± 1.16 pmol/mg protein
  Uptake (Average ± SD), Control: 0.107 ± 0.040 pmol/mg protein
  Background corrected uptake rate: 5.88 pmol/mg/min
  % control: 95.6%
[1]; inhibitor 10 μM
  Uptake (Average ± SD), OAT1: 3.70 ± 0.44 pmol/mg protein
  Uptake (Average ± SD), Control: 0.0571 ± 0.0257 pmol/mg protein
  Background corrected uptake rate: 3.64 pmol/mg/min
  % control: 59.2%
[1]; inhibitor 30 μM
  Uptake (Average ± SD), OAT1: 3.25 ± 0.39 pmol/mg protein
  Uptake (Average ± SD), Control: 0.612 ± 0.907 pmol/mg protein
  Background corrected uptake rate: 2.64 pmol/mg/min
  % control: 42.9%
[1]; inhibitor 100 μM
  Uptake (Average ± SD), OAT1: 1.79 ± 0.25 pmol/mg protein
  Uptake (Average ± SD), Control: 0.150 ± 0.026 pmol/mg protein
  Background corrected uptake rate: 1.64 pmol/mg/min
  % control: 26.7%
[1]; inhibitor 300 μM
  Uptake (Average ± SD), OAT1: 1.47 ± 0.12 pmol/mg protein
  Uptake (Average ± SD), Control: 0.0452 ± 0.0082 pmol/mg protein
  Background corrected uptake rate: 1.42 pmol/mg/min
  % control: 23.1%
[1]; inhibitor 1000 μM
  Uptake (Average ± SD), OAT1: 0.669 ± 0.099 pmol/mg protein
  Uptake (Average ± SD), Control: 0.119 ± 0.022 pmol/mg protein
  Background corrected uptake rate: 0.550 pmol/mg/min
  % control: 8.9%
[1]; fit of OAT1 inhibition curve
  IC50 parameters: Max: Max: 115%
  IC50 parameters: Min: Min: 0%
[2]
  IC50: 17.7 µM

## CO[C@@H]1[C@@H](OC(N)=O)[C@@H](O)[C@H](Oc2ccc3c(O)c(NC(=O)c4ccc(O)c(CC=C(C)C)c4)c(=O)oc3c2C)OC1(C)C [Novobiocin]
[1]; inhibitor 300 μM
  Uptake (Average ± SD), OAT1: 0.425 ± 0.071 pmol/mg protein
  Uptake (Average ± SD), Control: 0.231 ± 0.048 pmol/mg protein
  Background corrected uptake rate: 0.194 pmol/mg/min
  % control: 3.2%
